Results as given in patent publication US7026488B2, “Antitumor agents and process for producing the same” (priority 2001, dated 2006).
Entries after “also recorded” stand apart in the source; their conditions may differ.

Columns and labels:
tumor = conditions: administered into the tumor feeding artery, oily formulation; K. Doi et al. 1999; cited from earlier work
Solubility in water = format: physicochemical; conditions: for i.v. injection
[1] = molecular target: T1, purified heme oxygenase fraction derived from rat spleen (Rattus norvegicus, UniProt P06762); experiment: Inhibitory activity against heme oxygenase (bilirubin formation, Lineweaver-Burk plot); format: biochemical
T1 construct: purified heme oxygenase fraction derived from rat spleen; from tissue; host or cells: rat spleen
T1 sequence (P06762 1-289): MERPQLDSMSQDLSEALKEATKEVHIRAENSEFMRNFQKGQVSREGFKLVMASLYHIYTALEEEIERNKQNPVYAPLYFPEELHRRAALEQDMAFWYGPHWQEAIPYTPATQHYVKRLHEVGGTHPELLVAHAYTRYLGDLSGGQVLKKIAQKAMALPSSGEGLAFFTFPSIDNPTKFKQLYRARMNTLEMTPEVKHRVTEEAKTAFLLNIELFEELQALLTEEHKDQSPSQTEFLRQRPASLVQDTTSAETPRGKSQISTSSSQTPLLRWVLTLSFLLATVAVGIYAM
Protocol: This was examined using purified heme oxygenase fraction derived from rat spleen. It was assayed at 37° C. in the presence of hemin, the substrate of heme oxygenase, cofactor (NADPH, […]), and cytosolic fraction containing bilirubin reductase, in which biliverdin formed by the oxygenase is converted to bilirubin.
Bilirubin was extracted with chloroform and quantified by absorption at 465 nm. By the addition of either PEG-ZnPP, or unmodified ZnPP, or no inhibitor, their effect on heme oxidase was examined, and the Lineweaver-Burk plot of heme oxygenase activity was plotted during the inhibition by PEG-ZnPP. […] Mode of inhibition was competitive, and the value was equivalent to that of unmodified ZnPP.

[2] = test system: heme oxygenase in S 180 sarcoma tumor tissue; experiment: Inhibition of heme oxygenase in solid tumor model in mouse; format: in vivo; conditions: ddY mice, S 180 tumor
Protocol: In male ddY mice with mean body weight of 35 g, S 180 sarcoma cells were implanted in the dorsal skin, and when solid tumor size become 5 mm in cross diameter after about one week, PEG-ZnPP dissolved in distilled water were injected via tail vein (i.v.) at 0.5 mg ZnPP equivalent per Kg body weight. The solid tumors were removed after 24 hr, and heme oxygenase activity was quantified similarly as described in Example 1. Control mouse received distilled water without PEG-ZnPP. The tumor specimens were obtained and treated similarly.

[3] = Change of body weight in mice bearing solid tumor; format: in vivo, mouse; conditions: ddY mice bearing S180, during or after i.v. administration, FIG. 5
Protocol: (§1) Similar to Experiment 3 above, sarcoma S180 of mice implanted under the dosal skin of ddY mice, and after 10, 13 and 15 days after tumor implantation, PEG-ZnPP at 30 n mole, 30 n mole and 50 n mole (3 times only), respectively, was injected into the tail vein respectively (see also arrow marks in FIG. 4). Control mice received distilled water instead of PEG-ZnPP.

sarcoma S180 = experiment: Antitumor effect in mice bearing solid tumor; format: in vivo, mouse; conditions: ddY mice, i.v. 30, 30 and 50 n mole on days 10, 13 and 15 after implantation, FIG. 4
Protocol: as §1

[4] = test system: Lung adenocarcinoma cell line A549 cells; experiment: Oxidative stress in cultured tumor cells (DCDHF fluorescence, flow cytometry); format: cell-based; conditions: 5 μM and 10 μM, 8 hrs, compared with no drug, FIG. 3
Protocol: Lung adenocarcinoma cell line A549 cells were plated in plastic dish and after overnight culture, 5 μM and 10 μM of PEG-ZnPP dissolved in distilled water were added to the culture dishes. Then, 8 hrs after cultivation at 37° C., a reagent that quantifies oxidative stress, called dichlorodihydrofluorescein diacetyl ester (DCDHF) was added and allowing cell culture for 30 minutes. Under oxidative stress, this DCDHF will be become oxidized and will fluoresce due to oxystress was generated by formation of fluorescein in cells.
Quantification of fluorescence intensity represents the extent of oxidative stress induced in the cells. Then, cultured cells were trypsinized and recovered cells were subjected to the flow cytometrory analysis and fluorescence cell population was quantified. The results are shown in FIG. 3, where the effect of PEG-ZnPP at 5 μM, 10 μM, is compared with that of no drug.

| Ki ([1]; 37° C., hemin substrate, NADPH, cytosolic fraction with bilirubin reductase, read-out: inhibitory constant (Ki) against heme oxygenase) [nM] | Mode of inhibition of heme oxygenase ([1]; Lineweaver-Burk plot, FIG. 2) | Molecule | Antitumor effect in rats (tumor) | Solubility in water (Solubility in water) | Solubility in water (Solubility in water; listed as Unmodified ZnPP) | Inhibition of heme oxygenase (in words) ([1]; FIG. 2) | Activity of heme oxygenase in tumor tissue ([2]; i.v. tail vein 0.5 mg ZnPP equivalent per Kg, tumor removed after 24 hr, control 4.17 ± 1.07 (P < 0.02)) | Effect on intratumor heme oxygenase activity (in words) ([2]; i.v. tail vein, 24 hr) | Body weight change [3] | Tumor growth (tumor size) compared with control group (sarcoma S180) | intracellular oxidative state (DCDHF fluorescence) [4] |
| --- | --- | --- | --- | --- | --- | --- | --- | --- | --- | --- | --- |
|  |  | C=CC1=C(C)c2cc3[n-]c(cc4nc(cc5[n-]c(cc1n2)c(C)c5C=C)C(C)=C4CCC(=O)O)c(CCC(=O)O)c3C.[Zn+2] [ZnPP, zinc protoporphyrin] | confirmed antitumor effect in rats | almost insoluble in water | could not be administered i.v. because of its difficulty in solubility; also recorded: Impossible to solubilize |  |  |  |  |  |  |
| 130 | competitive | Polyethylene Glycol Conjugated ZnPP [PEG-ZnPP] |  |  |  | inhibits the heme oxygenase in a dose dependent manner | 2.30 ± 0.54 n mol bilirubin/mg protein/hr | significant reduction of the heme oxygenase activity | no remarkable body weight loss | remarkable suppression of tumor growth | higher intracellular oxidative state in the dose dependent manner |
